Reference: the supplement of paper PMC10307832

Tests used:
Assay in all cases: relative viability (nuclei count vs DMSO), 5 days (fraction); higher = more cells survive
[1] = test system: 201T
Outline: (§1)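 Nuclei were stained with Hoechst during a one-step fixation (final 0.05% Triton X-100, 1% formaldehyde, 1 ug/ml Hoechst) carried out 5 days after dosing, then counted on 4× images. The cells, lung cancer lines in 1536-well plates, had been dosed by pin tool the day after seeding with one drug alone or a fixed anchor-drug dose plus five library-drug doses (not always all listed) in √10 steps. Relative viability is the nuclei count in treated wells divided by that in vehicle wells, and each value is the median of duplicate plates.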

[2] = test system: COR-L23
Outline: as §1

[3] = test system: LCLC-97TM1
Outline: as §1

[4] = test system: PC-14
Outline: as §1

[5] = test system: NCI-H650
Outline: as §1

[6] = test system: NCI-H1355
Outline: as §1

[7] = test system: NCI-H2126
Outline: as §1

[8] = test system: NCI-H2009
Outline: as §1

[9] = test system: HCC-78
Outline: as §1

[10] = test system: NCI-H1734
Outline: as §1

[11] = test system: LCLC-103H
Outline: as §1

[12] = test system: NCI-H460
Outline: as §1

[13] = test system: HARA
Outline: as §1

[14] = test system: NCI-H647
Outline: as §1

[15] = test system: NCI-H1792
Outline: as §1

[16] = test system: HCC-15
Outline: as §1

[17] = test system: NCI-H596
Outline: as §1

[18] = test system: NCI-H441
Outline: as §1

[19] = test system: LOU-NH91
Outline: as §1

[20] = test system: HCC-366
Outline: as §1

COCC1(CO)C(=O)C2CCN1CC2 (stereo not given) [PRIMA-1MET] + C[C@]1(O)C[C@@H](c2nc(-c3ccc4ccc(-c5ccccc5)nc4c3)c3c(N)nccn32)C1 [Linsitinib] (partner 1 µM)
relative viability ([1]; first compound 0.2 µM): 1.11 | relative viability ([1]; first compound 0.6325 µM): 1.05 | relative viability ([1]; first compound 2 µM): 0.934 | relative viability ([1]; first compound 6.325 µM): 1.11 | relative viability ([1]; first compound 20 µM): 1 | relative viability ([2]; first compound 0.2 µM): 0.94 | relative viability ([2]; first compound 0.6325 µM): 0.942 | relative viability ([2]; first compound 2 µM): 0.978 | relative viability ([2]; first compound 6.325 µM): 0.873 | relative viability ([2]; first compound 20 µM): 0.0228 | relative viability ([3]; first compound 0.2 µM): 0.213 | relative viability ([3]; first compound 2 µM): 0.183 | relative viability ([3]; first compound 6.325 µM): 0.199 | relative viability ([3]; first compound 20 µM): 0.117 | relative viability ([4]; first compound 0.2 µM): 0.918 | relative viability ([4]; first compound 0.6325 µM): 0.978 | relative viability ([4]; first compound 2 µM): 0.923 | relative viability ([4]; first compound 6.325 µM): 0.987 | relative viability ([4]; first compound 20 µM): 0.927 | relative viability ([5]; first compound 0.2 µM): 1.13 | relative viability ([5]; first compound 2 µM): 0.859 | relative viability ([5]; first compound 6.325 µM): 0.674 | relative viability ([5]; first compound 20 µM): 0.107 | relative viability ([6]; first compound 0.2 µM): 0.998 | relative viability ([6]; first compound 0.6325 µM): 0.796 | relative viability ([6]; first compound 2 µM): 0.68 | relative viability ([6]; first compound 6.325 µM): 0.81 | relative viability ([6]; first compound 20 µM): 0.76 | relative viability ([7]; first compound 0.2 µM): 0.726 | relative viability ([7]; first compound 0.6325 µM): 0.692 | relative viability ([7]; first compound 2 µM): 0.636 | relative viability ([7]; first compound 6.325 µM): 0.732 | relative viability ([7]; first compound 20 µM): 0.67 | relative viability ([8]; first compound 0.2 µM): 1.17 | relative viability ([8]; first compound 0.6325 µM): 1.09 | relative viability ([8]; first compound 2 µM): 1.22 | relative viability ([8]; first compound 6.325 µM): 1.16 | relative viability ([8]; first compound 20 µM): 0.693 | relative viability ([9]; first compound 0.2 µM): 0.658 | relative viability ([9]; first compound 0.6325 µM): 0.556 | relative viability ([9]; first compound 6.325 µM): 0.498 | relative viability ([9]; first compound 20 µM): 0.0559 | relative viability ([10]; first compound 0.2 µM): 0.972 | relative viability ([10]; first compound 0.6325 µM): 0.808 | relative viability ([10]; first compound 2 µM): 0.824 | relative viability ([10]; first compound 6.325 µM): 0.818 | relative viability ([10]; first compound 20 µM): 0.51 | relative viability ([11]; first compound 0.2 µM): 1.24 | relative viability ([11]; first compound 0.6325 µM): 0.956 | relative viability ([11]; first compound 2 µM): 0.905 | relative viability ([11]; first compound 6.325 µM): 1.12 | relative viability ([11]; first compound 20 µM): 1.1 | relative viability ([12]; first compound 0.2 µM): 1.08 | relative viability ([12]; first compound 0.6325 µM): 0.545 | relative viability ([12]; first compound 2 µM): 0.613 | relative viability ([12]; first compound 6.325 µM): 0.0073 | relative viability ([12]; first compound 20 µM): 0.0038 | relative viability ([13]; first compound 0.2 µM): 1.16 | relative viability ([13]; first compound 0.6325 µM): 0.265 | relative viability ([13]; first compound 6.325 µM): 0.903 | relative viability ([13]; first compound 20 µM): 0.874 | relative viability ([14]; first compound 0.2 µM): 1.42 | relative viability ([14]; first compound 0.6325 µM): 1.16 | relative viability ([14]; first compound 2 µM): 1.18 | relative viability ([14]; first compound 6.325 µM): 1.42 | relative viability ([14]; first compound 20 µM): 1.18 | relative viability ([15]; first compound 0.2 µM): 0.521 | relative viability ([15]; first compound 0.6325 µM): 0.477 | relative viability ([15]; first compound 2 µM): 0.368 | relative viability ([15]; first compound 6.325 µM): 0.578 | relative viability ([15]; first compound 20 µM): 0.53 | relative viability ([16]; first compound 0.2 µM): 0.893 | relative viability ([16]; first compound 0.6325 µM): 0.544 | relative viability ([16]; first compound 2 µM): 0.78 | relative viability ([16]; first compound 6.325 µM): 0.903 | relative viability ([16]; first compound 20 µM): 0.722 | relative viability ([17]; first compound 0.2 µM): 1.29 | relative viability ([17]; first compound 0.6325 µM): 0.894 | relative viability ([17]; first compound 2 µM): 0.972 | relative viability ([17]; first compound 6.325 µM): 1.09 | relative viability ([17]; first compound 20 µM): 1.14 | relative viability ([18]; first compound 0.2 µM): 0.556 | relative viability ([18]; first compound 0.6325 µM): 0.517 | relative viability ([18]; first compound 2 µM): 0.458 | relative viability ([18]; first compound 6.325 µM): 0.524 | relative viability ([18]; first compound 20 µM): 0.24 | relative viability ([19]; first compound 0.2 µM): 1.02 | relative viability ([19]; first compound 0.6325 µM): 0.771 | relative viability ([19]; first compound 2 µM): 0.773 | relative viability ([19]; first compound 6.325 µM): 1.01 | relative viability ([19]; first compound 20 µM): 0.582 | relative viability ([20]; first compound 0.2 µM): 0.773 | relative viability ([20]; first compound 0.6325 µM): 0.566 | relative viability ([20]; first compound 6.325 µM): 0.636 | relative viability ([20]; first compound 20 µM): 0.0588
